As usually defined, the mass density is the mass of a sample divided by its volume.

For six compounds, mass density results are on record in the NIST ThermoML archive (doi:10.1021/je400231q).

For this data set the following is noted: 101.33 kPa, Liquid, Vibrating tube method.

The structures appear in SMILES notation. Numbers after ± are expanded uncertainties.

Regarding `CCOS(=O)(=O)[O-].CCn1cc[n+](C)c1` [1-ethyl-3-methylimidazolium ethyl sulfate], the mass density by setting is: (293.15 K) 1236.7 ± 13 kg/m3; (298.15 K) 1233.2 ± 12 kg/m3; (303.15 K) 1229.8 ± 12 kg/m3; (308.15 K) 1226.3 ± 12 kg/m3; (313.15 K) 1222.9 ± 12 kg/m3; (318.15 K) 1219.5 ± 12 kg/m3. The mass density (323.15 K) is 1216.2 ± 12 kg/m3 and the mass density (328.15 K) amounted to 1212.8 ± 12 kg/m3.

Take `CCn1cc[n+](C)c1.N#C[S-]` [1-ethyl-3-methylimidazolium thiocyanate]: the mass density reads like this: (293.15 K) 1119.2 ± 12 kg/m3; (298.15 K) 1116.1 ± 12 kg/m3; (303.15 K) 1113 ± 12 kg/m3; (308.15 K) 1109.9 ± 12 kg/m3; (313.15 K) 1106.9 ± 12 kg/m3; (318.15 K) 1103.8 ± 12 kg/m3. Also, the mass density is, setting by setting: (323.15 K) 1100.8 ± 12 kg/m3; (328.15 K) 1097.8 ± 12 kg/m3.

Consider `CCn1cc[n+](C)c1.CS(=O)(=O)[O-]` [1-ethyl-3-methylimidazolium methanesulfonate], for which the mass density by setting is: (293.15 K) 1244.4 ± 13 kg/m3; (298.15 K) 1240.9 ± 13 kg/m3; (303.15 K) 1237.4 ± 13 kg/m3; (308.15 K) 1233.9 ± 12 kg/m3; (313.15 K) 1230.5 ± 12 kg/m3; (318.15 K) 1227 ± 12 kg/m3. Further, the mass density (323.15 K) is on record as 1223.7 ± 12 kg/m3 and the mass density (328.15 K) is reported as 1220.3 ± 12 kg/m3.

Turning to `CC(=O)[O-].CCn1cc[n+](C)c1` [1-ethyl-3-methylimidazolium acetate], the mass density runs as follows: (293.15 K) 1101.5 ± 12 kg/m3; (298.15 K) 1098.3 ± 12 kg/m3; (303.15 K) 1095.1 ± 12 kg/m3; (308.15 K) 1092 ± 12 kg/m3; (313.15 K) 1088.9 ± 12 kg/m3; (318.15 K) 1085.8 ± 12 kg/m3. Further, the mass density reads like this: (323.15 K) 1082.8 ± 12 kg/m3; (328.15 K) 1079.7 ± 12 kg/m3.

Take `COS(=O)(=O)[O-].C[N+](CCO)(CCO)CCO` [tris(2-hydroxyethyl) methylammonium methylsulfate]: the mass density (293.15 K) is on record as 1347.2 ± 14 kg/m3; the mass density (298.15 K) amounted to 1344.3 ± 14 kg/m3; the mass density (303.15 K) was determined as 1341.4 ± 13 kg/m3; the mass density (308.15 K) was determined as 1338.5 ± 13 kg/m3; the mass density (313.15 K) is reported as 1335.7 ± 13 kg/m3; the mass density (318.15 K) worked out at 1332.9 ± 13 kg/m3. The mass density (323.15 K) was 1330.2 ± 13 kg/m3 and the mass density (328.15 K) turned out to be 1327.4 ± 13 kg/m3.

With `CC(CC(C)(C)C)CP(=O)([O-])CC(C)CC(C)(C)C.CCCCCCCCCCCCCC[P+](CCCCCC)(CCCCCC)CCCCCC`, the mass density is on record as 894 ± 11 kg/m3 (293.15 K); 890.8 ± 11 kg/m3 (298.15 K); 887.7 ± 11 kg/m3 (303.15 K); 884.6 ± 11 kg/m3 (308.15 K); 881.5 ± 11 kg/m3 (313.15 K); 878.4 ± 11 kg/m3 (318.15 K). Besides, the mass density (323.15 K) was found to be 875.3 ± 11 kg/m3 and the mass density (328.15 K) turned out to be 872.3 ± 11 kg/m3.
